Test results reported in ChEMBL document CHEMBL3991601, “The target landscape of clinical kinase drugs” (Science, 2017).
The source made the active and inactive calls. Cut-off read from the data, not from the text of the source, for most assays here: actives have a measured Kd and inactives only a lower limit.

Key:
[1] = biological target: Mitogen-activated protein kinase kinase kinase 20 (Homo sapiens, UniProt Q9NYL2)
[2] = biological target: Serine/threonine-protein kinase 16 (Homo sapiens, UniProt O75716)
Chain of Serine/threonine-protein kinase 16 (O75716 whole entry): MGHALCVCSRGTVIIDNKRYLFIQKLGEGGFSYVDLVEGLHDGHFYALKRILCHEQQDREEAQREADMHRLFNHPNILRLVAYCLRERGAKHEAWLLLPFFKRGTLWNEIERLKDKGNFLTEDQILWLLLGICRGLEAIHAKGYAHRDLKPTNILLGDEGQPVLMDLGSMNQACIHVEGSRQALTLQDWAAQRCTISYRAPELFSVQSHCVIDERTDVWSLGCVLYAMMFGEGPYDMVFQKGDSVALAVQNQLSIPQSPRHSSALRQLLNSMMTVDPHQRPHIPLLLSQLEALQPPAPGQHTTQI

[3] = biological target: T1, RNA cytidine acetyltransferase (Homo sapiens, UniProt Q9H0A0)
T1 sequence (Q9H0A0 whole entry): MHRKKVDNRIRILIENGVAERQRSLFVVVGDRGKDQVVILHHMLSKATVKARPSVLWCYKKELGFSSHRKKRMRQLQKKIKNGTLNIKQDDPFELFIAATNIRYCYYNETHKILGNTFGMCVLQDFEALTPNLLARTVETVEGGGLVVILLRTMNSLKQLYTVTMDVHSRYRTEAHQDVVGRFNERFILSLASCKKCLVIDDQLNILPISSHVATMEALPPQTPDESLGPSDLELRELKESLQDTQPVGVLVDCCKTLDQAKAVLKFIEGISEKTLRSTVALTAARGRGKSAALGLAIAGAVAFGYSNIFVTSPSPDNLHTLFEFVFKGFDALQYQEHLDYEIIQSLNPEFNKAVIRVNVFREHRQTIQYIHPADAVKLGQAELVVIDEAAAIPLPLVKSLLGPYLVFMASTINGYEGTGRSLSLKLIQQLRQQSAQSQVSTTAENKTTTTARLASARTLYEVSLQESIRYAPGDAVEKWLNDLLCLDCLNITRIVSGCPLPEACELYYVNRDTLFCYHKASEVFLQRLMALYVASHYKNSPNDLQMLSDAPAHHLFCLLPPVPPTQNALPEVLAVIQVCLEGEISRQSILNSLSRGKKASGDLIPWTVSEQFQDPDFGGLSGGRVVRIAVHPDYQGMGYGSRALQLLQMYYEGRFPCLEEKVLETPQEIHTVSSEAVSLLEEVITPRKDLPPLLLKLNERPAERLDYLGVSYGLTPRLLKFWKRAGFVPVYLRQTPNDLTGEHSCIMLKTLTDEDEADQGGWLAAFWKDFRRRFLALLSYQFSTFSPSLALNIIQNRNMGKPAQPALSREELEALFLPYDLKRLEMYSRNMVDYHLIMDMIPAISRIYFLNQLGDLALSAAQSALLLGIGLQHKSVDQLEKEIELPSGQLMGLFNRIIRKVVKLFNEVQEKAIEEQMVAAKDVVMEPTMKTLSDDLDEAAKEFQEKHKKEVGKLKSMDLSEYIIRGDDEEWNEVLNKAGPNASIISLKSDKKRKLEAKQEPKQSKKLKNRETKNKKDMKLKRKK

[4] = biological target: Casein kinase I isoform epsilon (Homo sapiens, UniProt P49674)
Chain of Casein kinase I isoform epsilon (P49674 whole entry, canonical isoform): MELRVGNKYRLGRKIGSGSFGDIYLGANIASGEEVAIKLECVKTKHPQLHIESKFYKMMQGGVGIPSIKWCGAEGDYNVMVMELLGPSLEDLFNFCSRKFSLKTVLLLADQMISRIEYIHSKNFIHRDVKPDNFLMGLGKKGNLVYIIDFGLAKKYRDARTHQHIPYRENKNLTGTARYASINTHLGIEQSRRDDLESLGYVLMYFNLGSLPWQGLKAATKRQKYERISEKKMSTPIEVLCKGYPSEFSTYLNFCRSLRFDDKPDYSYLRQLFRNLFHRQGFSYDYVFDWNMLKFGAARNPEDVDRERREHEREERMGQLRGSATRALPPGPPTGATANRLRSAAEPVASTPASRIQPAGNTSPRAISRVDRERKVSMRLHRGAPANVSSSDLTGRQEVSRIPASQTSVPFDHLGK

[5] = biological target: T2, Dual specificity mitogen-activated protein kinase kinase 3 (Homo sapiens, UniProt P46734)
T2 sequence (P46734 whole entry): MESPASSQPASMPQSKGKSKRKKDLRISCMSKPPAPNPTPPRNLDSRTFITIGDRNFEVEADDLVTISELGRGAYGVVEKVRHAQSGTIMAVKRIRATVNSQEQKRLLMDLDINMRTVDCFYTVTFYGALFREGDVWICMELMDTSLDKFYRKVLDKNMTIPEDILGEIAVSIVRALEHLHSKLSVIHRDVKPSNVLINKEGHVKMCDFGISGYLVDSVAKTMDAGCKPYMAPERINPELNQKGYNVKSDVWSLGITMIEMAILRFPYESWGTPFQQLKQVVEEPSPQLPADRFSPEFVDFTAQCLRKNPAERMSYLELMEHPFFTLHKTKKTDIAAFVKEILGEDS

[6] = biological target: Glycogen synthase kinase-3 beta (Homo sapiens, UniProt P49841)
Chain of Glycogen synthase kinase-3 beta (P49841 whole entry): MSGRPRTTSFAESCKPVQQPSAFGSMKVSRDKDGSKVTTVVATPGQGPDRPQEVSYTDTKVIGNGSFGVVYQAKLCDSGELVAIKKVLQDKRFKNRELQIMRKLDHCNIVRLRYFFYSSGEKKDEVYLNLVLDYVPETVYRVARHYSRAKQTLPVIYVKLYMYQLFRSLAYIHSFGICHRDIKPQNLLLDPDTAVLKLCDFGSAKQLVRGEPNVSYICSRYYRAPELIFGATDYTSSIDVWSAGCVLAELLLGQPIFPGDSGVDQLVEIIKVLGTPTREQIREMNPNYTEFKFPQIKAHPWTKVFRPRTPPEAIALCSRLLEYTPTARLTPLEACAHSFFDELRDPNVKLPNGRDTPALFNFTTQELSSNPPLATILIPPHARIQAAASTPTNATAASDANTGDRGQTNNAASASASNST

[7] = biological target: Eukaryotic translation initiation factor 2-alpha kinase 1 (Homo sapiens, UniProt Q9BQI3)
Chain of Eukaryotic translation initiation factor 2-alpha kinase 1 (Q9BQI3 whole entry): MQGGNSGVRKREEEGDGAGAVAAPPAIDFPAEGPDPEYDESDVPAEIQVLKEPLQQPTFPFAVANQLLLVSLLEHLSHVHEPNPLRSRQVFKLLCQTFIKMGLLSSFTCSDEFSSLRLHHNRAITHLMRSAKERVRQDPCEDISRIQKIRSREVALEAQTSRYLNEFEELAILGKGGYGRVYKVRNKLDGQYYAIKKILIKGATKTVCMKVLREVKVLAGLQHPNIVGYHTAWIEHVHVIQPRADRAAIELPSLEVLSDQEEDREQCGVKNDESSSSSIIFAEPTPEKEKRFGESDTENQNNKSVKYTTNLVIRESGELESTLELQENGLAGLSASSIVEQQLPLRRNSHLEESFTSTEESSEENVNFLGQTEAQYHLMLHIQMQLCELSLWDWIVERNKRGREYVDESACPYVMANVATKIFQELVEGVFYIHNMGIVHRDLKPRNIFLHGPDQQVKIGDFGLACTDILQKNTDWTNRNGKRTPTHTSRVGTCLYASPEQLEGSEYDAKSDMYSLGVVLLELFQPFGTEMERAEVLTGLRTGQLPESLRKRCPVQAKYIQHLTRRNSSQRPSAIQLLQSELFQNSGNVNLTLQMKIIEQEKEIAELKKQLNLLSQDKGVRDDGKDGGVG

Heme oxygenase 2 = biological target: T3, Heme oxygenase 2 (Homo sapiens, UniProt P30519)
T3 sequence (P30519 whole entry): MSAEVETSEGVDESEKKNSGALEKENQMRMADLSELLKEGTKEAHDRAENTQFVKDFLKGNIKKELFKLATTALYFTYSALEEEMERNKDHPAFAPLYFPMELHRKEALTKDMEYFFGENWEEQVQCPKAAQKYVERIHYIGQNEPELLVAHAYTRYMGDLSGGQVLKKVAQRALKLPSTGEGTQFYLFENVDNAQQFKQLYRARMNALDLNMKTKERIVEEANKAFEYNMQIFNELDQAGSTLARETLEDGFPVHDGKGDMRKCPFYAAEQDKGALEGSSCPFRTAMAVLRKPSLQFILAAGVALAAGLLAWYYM

[8] = biological target: Calcium/calmodulin-dependent protein kinase kinase 2 (Homo sapiens, UniProt Q96RR4)
Chain of Calcium/calmodulin-dependent protein kinase kinase 2 (Q96RR4 whole entry): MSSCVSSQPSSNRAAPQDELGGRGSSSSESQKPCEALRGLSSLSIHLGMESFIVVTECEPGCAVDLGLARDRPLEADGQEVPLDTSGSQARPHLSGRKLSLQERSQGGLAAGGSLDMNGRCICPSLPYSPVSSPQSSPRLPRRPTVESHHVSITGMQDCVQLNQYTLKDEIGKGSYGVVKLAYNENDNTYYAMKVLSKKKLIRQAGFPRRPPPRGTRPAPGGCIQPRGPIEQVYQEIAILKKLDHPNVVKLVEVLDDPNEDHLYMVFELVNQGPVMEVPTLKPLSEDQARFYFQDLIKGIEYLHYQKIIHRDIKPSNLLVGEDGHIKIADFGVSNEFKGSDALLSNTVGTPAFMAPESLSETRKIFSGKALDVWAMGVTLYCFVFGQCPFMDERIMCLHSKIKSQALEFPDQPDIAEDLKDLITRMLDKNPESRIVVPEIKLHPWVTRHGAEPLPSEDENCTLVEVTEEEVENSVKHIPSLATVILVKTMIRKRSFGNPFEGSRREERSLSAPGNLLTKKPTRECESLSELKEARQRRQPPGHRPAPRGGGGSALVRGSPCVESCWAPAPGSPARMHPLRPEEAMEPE

[9] = biological target: Cyclin-dependent kinase 1 (Homo sapiens, UniProt P06493)
Chain of Cyclin-dependent kinase 1 (P06493 whole entry): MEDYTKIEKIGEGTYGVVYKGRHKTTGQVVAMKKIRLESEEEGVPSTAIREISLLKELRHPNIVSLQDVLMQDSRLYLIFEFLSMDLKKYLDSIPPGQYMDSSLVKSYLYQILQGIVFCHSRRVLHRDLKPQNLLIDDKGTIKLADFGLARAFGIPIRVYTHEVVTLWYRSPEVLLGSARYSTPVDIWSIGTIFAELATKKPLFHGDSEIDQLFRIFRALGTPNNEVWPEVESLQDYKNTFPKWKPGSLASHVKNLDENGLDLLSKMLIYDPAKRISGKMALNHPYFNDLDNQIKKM

[10] = biological target: High affinity nerve growth factor receptor (Homo sapiens, UniProt P04629)
[11] = biological target: Serine/threonine-protein kinase SIK2 (Homo sapiens, UniProt Q9H0K1)
Chain of Serine/threonine-protein kinase SIK2 (Q9H0K1 whole entry): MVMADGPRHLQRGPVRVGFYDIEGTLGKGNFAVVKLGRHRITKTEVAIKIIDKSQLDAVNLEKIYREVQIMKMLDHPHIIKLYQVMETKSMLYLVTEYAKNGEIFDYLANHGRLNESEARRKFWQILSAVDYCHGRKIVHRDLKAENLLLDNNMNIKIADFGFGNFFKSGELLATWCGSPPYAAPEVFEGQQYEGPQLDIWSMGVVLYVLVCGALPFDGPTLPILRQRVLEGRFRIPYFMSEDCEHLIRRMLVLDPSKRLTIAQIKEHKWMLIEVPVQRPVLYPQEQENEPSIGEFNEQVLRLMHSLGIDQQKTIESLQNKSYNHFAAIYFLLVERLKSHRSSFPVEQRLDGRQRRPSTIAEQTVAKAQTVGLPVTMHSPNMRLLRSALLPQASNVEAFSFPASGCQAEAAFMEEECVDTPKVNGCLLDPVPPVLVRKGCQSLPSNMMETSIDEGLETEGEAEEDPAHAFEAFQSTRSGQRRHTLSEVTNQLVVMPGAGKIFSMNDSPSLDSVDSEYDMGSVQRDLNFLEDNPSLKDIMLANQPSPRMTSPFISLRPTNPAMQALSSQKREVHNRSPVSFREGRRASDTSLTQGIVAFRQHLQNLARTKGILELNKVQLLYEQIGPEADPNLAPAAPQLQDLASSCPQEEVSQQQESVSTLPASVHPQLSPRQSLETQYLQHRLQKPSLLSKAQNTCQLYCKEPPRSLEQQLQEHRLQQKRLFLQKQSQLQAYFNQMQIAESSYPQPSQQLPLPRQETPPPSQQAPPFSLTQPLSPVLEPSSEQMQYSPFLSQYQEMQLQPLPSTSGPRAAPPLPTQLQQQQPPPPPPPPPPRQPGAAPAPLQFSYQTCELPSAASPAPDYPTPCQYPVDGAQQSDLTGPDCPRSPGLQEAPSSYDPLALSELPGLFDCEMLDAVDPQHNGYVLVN

[12] = biological target: DNA topoisomerase 2-alpha (Homo sapiens, UniProt P11388)
[13] = biological target: T4, MAP kinase-activated protein kinase 5 (Homo sapiens, UniProt Q8IW41)
T4 sequence (Q8IW41 whole entry): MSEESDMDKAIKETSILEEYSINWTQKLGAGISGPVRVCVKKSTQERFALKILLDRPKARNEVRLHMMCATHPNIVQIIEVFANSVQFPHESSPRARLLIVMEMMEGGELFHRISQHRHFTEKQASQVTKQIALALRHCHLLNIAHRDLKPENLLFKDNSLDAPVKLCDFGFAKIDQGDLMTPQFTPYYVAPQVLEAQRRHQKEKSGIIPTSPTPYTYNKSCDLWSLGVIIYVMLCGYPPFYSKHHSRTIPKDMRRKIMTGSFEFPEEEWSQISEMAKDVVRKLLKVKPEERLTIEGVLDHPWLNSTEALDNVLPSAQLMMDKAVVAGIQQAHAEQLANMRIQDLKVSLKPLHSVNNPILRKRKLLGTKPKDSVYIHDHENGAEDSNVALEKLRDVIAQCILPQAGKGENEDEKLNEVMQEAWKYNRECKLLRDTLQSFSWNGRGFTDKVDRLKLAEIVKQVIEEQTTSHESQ
Note: in the data inactive means no Kd found up to 30 µM.

Chain of Mitogen-activated protein kinase kinase kinase 20 (Q9NYL2 whole entry): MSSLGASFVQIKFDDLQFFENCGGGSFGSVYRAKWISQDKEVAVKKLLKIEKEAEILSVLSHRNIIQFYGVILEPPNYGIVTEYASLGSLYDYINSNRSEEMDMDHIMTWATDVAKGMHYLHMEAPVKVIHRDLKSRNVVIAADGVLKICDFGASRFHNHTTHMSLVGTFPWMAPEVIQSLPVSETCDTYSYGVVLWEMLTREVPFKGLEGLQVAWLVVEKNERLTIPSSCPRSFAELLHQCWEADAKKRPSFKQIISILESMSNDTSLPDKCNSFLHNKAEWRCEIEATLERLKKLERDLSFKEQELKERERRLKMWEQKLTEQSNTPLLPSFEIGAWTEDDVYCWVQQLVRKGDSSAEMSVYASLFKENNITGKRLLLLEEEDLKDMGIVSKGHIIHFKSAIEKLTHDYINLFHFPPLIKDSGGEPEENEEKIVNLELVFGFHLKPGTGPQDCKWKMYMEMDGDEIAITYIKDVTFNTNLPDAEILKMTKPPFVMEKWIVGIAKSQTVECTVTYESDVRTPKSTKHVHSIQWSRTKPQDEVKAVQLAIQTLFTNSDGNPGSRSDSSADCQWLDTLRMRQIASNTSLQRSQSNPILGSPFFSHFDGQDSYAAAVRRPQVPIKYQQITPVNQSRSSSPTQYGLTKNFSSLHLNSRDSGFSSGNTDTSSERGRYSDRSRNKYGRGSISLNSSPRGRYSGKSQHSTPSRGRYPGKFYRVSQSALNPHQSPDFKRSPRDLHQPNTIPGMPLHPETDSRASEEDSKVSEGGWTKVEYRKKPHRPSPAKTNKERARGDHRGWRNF

Compound	Kd [1]	Kd [2]	Kd [3]	Kd [4]	Kd [5]	Kd [6]	Kd [7]	Kd (Heme oxygenase 2)	Kd [8]	Kd [9]	Kd [10]	Kd [11]	Kd [12]	Kd [13]
C[C@H]1CNCCCN1S(=O)(=O)c1cccc2cncc(F)c12	> 30 µM (inactive)	> 30 µM (inactive)	> 30 µM (inactive)	> 30 µM (inactive)	3.08 µM (active)	> 30 µM (inactive)	> 30 µM (inactive)	> 30 µM (inactive)	> 30 µM (inactive)	> 30 µM (inactive)	> 30 µM (inactive)	> 30 µM (inactive)	–	–
CCNC(=O)C#Cc1ccc2c(c1)NC(=O)/C2=C(\Nc1ccc(CN(C)C)cc1)c1ccccc1	> 30 µM (inactive)	> 30 µM (inactive)	> 30 µM (inactive)	> 30 µM (inactive)	> 30 µM (inactive)	> 30 µM (inactive)	> 30 µM (inactive)	> 30 µM (inactive)	> 30 µM (inactive)	> 30 µM (inactive)	–	3.51 µM (active)	> 30 µM (inactive)	–
COc1cc(Nc2ncc3c(n2)-c2ccc(Cl)cc2C(c2c(F)cccc2OC)=NC3)ccc1C(=O)O [ALISERTIB]	–	> 30 µM (inactive)	> 30 µM (inactive)	> 30 µM (inactive)	> 30 µM (inactive)	–	> 30 µM (inactive)	> 30 µM (inactive)	> 30 µM (inactive)	–	–	> 30 µM (inactive)	> 30 µM (inactive)	–
Cc1nc(NC(=O)N2CCC[C@H]2C(N)=O)sc1-c1ccnc(C(C)(C)C(F)(F)F)c1 [ALPELISIB]	> 30 µM (inactive)	> 30 µM (inactive)	> 30 µM (inactive)	> 30 µM (inactive)	> 30 µM (inactive)	> 30 µM (inactive)	> 30 µM (inactive)	> 30 µM (inactive)	> 30 µM (inactive)	> 30 µM (inactive)	–	> 30 µM (inactive)	> 30 µM (inactive)	> 30 µM (inactive)
CNC(=O)c1ccccc1Sc1ccc2c(/C=C/c3ccccn3)n[nH]c2c1 [AXITINIB]	–	–	> 30 µM (inactive)	–	–	–	–	> 30 µM (inactive)	–	> 30 µM (inactive)	–	–	> 30 µM (inactive)	–
NC(=O)Nc1cc(-c2cccc(F)c2)sc1C(=O)N[C@H]1CCCNC1 [AZD-7762]	> 30 µM (inactive)	> 30 µM (inactive)	> 30 µM (inactive)	> 30 µM (inactive)	> 30 µM (inactive)	> 30 µM (inactive)	> 30 µM (inactive)	> 30 µM (inactive)	> 30 µM (inactive)	> 30 µM (inactive)	–	0.007 µM (active)	> 30 µM (inactive)	> 30 µM (inactive)
CCn1c(C(=O)N(C2CC2)C2CC2)cc2c3c(ncn3C)c(Nc3cc(C)n(C)n3)nc21 [BMS-911543]	> 30 µM (inactive)	> 30 µM (inactive)	> 30 µM (inactive)	> 30 µM (inactive)	> 30 µM (inactive)	> 30 µM (inactive)	> 30 µM (inactive)	> 30 µM (inactive)	> 30 µM (inactive)	> 30 µM (inactive)	–	> 30 µM (inactive)	–	–
CC(C)(C)c1nc(-c2cccc(NS(=O)(=O)c3c(F)cccc3F)c2F)c(-c2ccnc(N)n2)s1 [DABRAFENIB]	0.184 µM (active)	> 30 µM (inactive)	> 30 µM (inactive)	> 30 µM (inactive)	–	–	–	> 30 µM (inactive)	> 30 µM (inactive)	0.364 µM (active)	–	0.649 µM (active)	> 30 µM (inactive)	–
Cn1cc(C2=C(c3cn(C4CCN(Cc5ccccn5)CC4)c4ccccc34)C(=O)NC2=O)c2ccccc21 [ENZASTAURIN]	–	–	> 30 µM (inactive)	–	–	–	–	> 30 µM (inactive)	–	> 30 µM (inactive)	–	–	–	–
C[C@@H](Oc1cc(-n2cnc3ccc(CN4CCN(C)CC4)cc32)sc1C(N)=O)c1ccccc1C(F)(F)F [GSK-461364]	–	–	> 30 µM (inactive)	–	–	–	–	> 30 µM (inactive)	–	> 30 µM (inactive)	–	–	> 30 µM (inactive)	–
Cc1[nH]c(/C=C2\C(=O)Nc3ccccc32)c(C)c1CCC(=O)O [ORANTINIB]	–	–	1.24 µM	–	> 30 µM (inactive)	–	> 30 µM (inactive)	> 30 µM (inactive)	–	–	–	> 30 µM (inactive)	> 30 µM (inactive)	–
NC(=O)c1c(OCc2c(F)cc(Br)cc2F)nsc1NC(=O)NCCCCN1CCCC1 [OSI-632]	–	> 30 µM (inactive)	> 30 µM (inactive)	1.47 µM	> 30 µM (inactive)	–	3.57 µM (active)	> 30 µM (inactive)	> 30 µM (inactive)	–	–	0.904 µM (active)	> 30 µM (inactive)	–
CC(=O)NCC(=O)N1[C@@H]2CC[C@H]1c1ccc(Nc3ncc(C(F)(F)F)c(NC4CCC4)n3)cc12 [PF-03814735]	–	–	> 30 µM (inactive)	–	> 30 µM (inactive)	–	> 30 µM (inactive)	> 30 µM (inactive)	2.19 µM (active)	–	–	0.011 µM (active)	–	–
CNC(=O)c1cc(Oc2ccc(NC(=O)Nc3cc(C(C)(C)C)nn3-c3ccc4ncccc4c3)c(F)c2)ccn1 [REBASTINIB]	0.388 µM (active)	–	> 30 µM (inactive)	> 30 µM (inactive)	> 30 µM (inactive)	> 30 µM (inactive)	–	> 30 µM (inactive)	> 30 µM (inactive)	1.07 µM (active)	–	> 30 µM (inactive)	> 30 µM (inactive)	> 30 µM (inactive)
O=C(NOCCO)c1cc(CN2OCCCC2=O)c(F)c(F)c1Nc1ccc(I)cc1F [RO-4987655]	–	–	> 30 µM (inactive)	–	–	–	–	> 30 µM (inactive)	–	> 30 µM (inactive)	–	–	> 30 µM (inactive)	–
N#CC[C@H](C1CCCC1)n1cc(-c2ncnc3[nH]ccc23)cn1 [RUXOLITINIB]	–	–	> 30 µM (inactive)	–	–	–	–	> 30 µM (inactive)	–	> 30 µM (inactive)	–	–	–	–
CN1C/C=C/CCOc2cccc(c2)-c2ccnc(n2)Nc2cccc(c2)C1 [ZOTIRACICLIB]	> 30 µM (inactive)	> 30 µM (inactive)	> 30 µM (inactive)	> 30 µM (inactive)	> 30 µM (inactive)	0.447 µM (active)	> 30 µM (inactive)	> 30 µM (inactive)	> 30 µM (inactive)	> 30 µM (inactive)	–	> 30 µM (inactive)	> 30 µM (inactive)	> 30 µM (inactive)
